Source: patent US7932270B2 (Cytokinetics, Inc., priority 2006, dated 2011)

Biological target: T1, chicken gizzard smooth muscle myosin subfragment-1 chemically crosslinked to cardiac or skeletal actin (Gallus gallus, UniProt P10587)
T1 construct: chicken gizzard smooth muscle myosin subfragment-1; from tissue; host or cells: chicken gizzard
Test: Smooth muscle myosin ATPase dose response assay (pyruvate kinase/horseradish peroxidase/pyruvate oxidase-coupled, amplex red fluorescence)
Format: biochemical
Conditions: read-out: IC50 Arithmetic Mean
How it was run: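 EDC/NHS-crosslinked S1–actin, amount set per prep by rate titration. Buffer: 12 mM K-PIPES pH 7.00 (22° C), 100 mM KCl, 2 mM MgCl2, 0.15 mM ATP, 0.1 mM PEP, 2 mM KPi, 0.1 mM amplex red. Read ex 480/em 615 nm; IC50 = midpoint, 4-param Hill fit.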

T1 sequence (P02607 2-151): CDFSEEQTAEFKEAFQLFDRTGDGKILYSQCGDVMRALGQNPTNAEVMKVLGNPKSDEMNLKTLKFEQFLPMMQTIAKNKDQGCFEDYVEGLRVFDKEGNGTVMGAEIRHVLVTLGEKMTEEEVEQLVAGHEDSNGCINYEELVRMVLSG
T1 sequence (P10587 84-789): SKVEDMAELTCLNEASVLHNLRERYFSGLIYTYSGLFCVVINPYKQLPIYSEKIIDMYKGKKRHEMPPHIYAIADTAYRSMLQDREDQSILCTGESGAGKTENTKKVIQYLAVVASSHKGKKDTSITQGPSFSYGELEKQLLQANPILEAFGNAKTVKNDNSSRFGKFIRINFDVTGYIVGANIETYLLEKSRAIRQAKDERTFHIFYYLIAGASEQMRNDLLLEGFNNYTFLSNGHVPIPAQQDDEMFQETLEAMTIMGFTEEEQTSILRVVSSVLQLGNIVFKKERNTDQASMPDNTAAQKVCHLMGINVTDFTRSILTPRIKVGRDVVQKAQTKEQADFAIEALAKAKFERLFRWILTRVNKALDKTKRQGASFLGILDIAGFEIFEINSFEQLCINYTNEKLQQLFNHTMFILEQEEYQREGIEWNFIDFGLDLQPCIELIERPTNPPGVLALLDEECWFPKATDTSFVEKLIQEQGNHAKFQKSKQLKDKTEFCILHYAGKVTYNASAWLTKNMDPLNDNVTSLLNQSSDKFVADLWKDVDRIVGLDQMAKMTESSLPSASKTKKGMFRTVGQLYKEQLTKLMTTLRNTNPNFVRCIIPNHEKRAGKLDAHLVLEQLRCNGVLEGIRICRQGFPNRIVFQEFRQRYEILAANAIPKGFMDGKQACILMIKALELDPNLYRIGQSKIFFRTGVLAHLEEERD

Row | IC50 [nM] | SMILES
1 | 248 | Cn1cc(-c2ccc(C(=O)NCC3CCNC3=O)c(NCCc3cccc(F)c3)n2)cn1 (stereo not shown) [(2-{[2-(3-fluorophenyl)ethyl]amino}-6-(1-methylpyrazol-4-yl)(3-pyridyl))-N-[(2-oxopyrrolidin-3-yl)methyl]carboxamide]
2 | 486 | CNC(=O)CNC(=O)c1ccc(-c2ccccc2)nc1NCCc1ccccc1 [N-methyl-2-({6-phenyl-2-[(2-phenylethyl)amino](3-pyridyl)}carbonylamino)acetamide]
3 | 1410 | NCCCn1ccc(CNC(=O)c2ccc(-c3cn[nH]c3)nc2NCCc2cccc(F)c2)n1 [N-{[1-(3-aminopropyl)pyrazol-3-yl]methyl}(2-{[2-(3-fluorophenyl)ethyl]amino}-6-pyrazol-4-yl(3-pyridyl))carboxamide]
4 | 13200 | NCCCN1C(=O)CC[C@@H]1CNC(=O)c1ccc(-c2ccccc2C(N)=O)nc1NCCc1cccc(F)c1 [2-[5-(N-{[(2R)-1-(3-aminopropyl)-5-oxopyrrolidin-2-yl]methyl}carbamoyl)-6-{[2-(3-fluorophenyl)ethyl]amino}-2-pyridyl]benzamide]
5 | 6 | N#Cc1ccccc1-c1ccc(C(=O)NCc2cccnc2CN)c(NCCc2cccc(F)c2)n1 [N-{[2-(aminomethyl)(3-pyridyl)]methyl}(6-(2-cyanophenyl)-2-{[2-(3-fluorophenyl)ethyl]amino}(3-pyridyl))carboxamide]
6 | 521 | O=C(NCc1cccnc1)c1ccc(-c2ccccc2)nc1NCCc1ccc(F)c(F)c1 [(2-{[2-(3,4-difluorophenyl)ethyl]amino}-6-phenyl(3-pyridyl))-N-(3-pyridylmethyl)carboxamide]
7 | 2290 | COC(=O)[C@H](N)CNC(=O)c1ccc(-c2ccccc2C#N)nc1NCCc1cccc(F)c1 [methyl (2R)-2-amino-3-[(6-(2-cyanophenyl)-2-{[2-(3-fluorophenyl)ethyl]amino}(3-pyridyl))carbonylamino]propanoate]
8 | 10600 | N#Cc1ccccc1-c1ccc(C(=O)NC[C@@H](CN)NC(=O)CO)c(NCCc2cccc(F)c2)n1 [N-((1R)-2-amino-1-{[(6-(2-cyanophenyl)-2-{[2-(3-fluorophenyl)ethyl]amino}(3-pyridyl))carbonylamino]methyl}ethyl)-2-hydroxyacetamide]
9 | 1570 | O=C(NCc1cccnc1)c1ccc(-c2ccsc2CO)nc1NCCc1cccc(F)c1 [(2-{[2-(3-fluorophenyl)ethyl]amino}-6-[2-(hydroxymethyl)(3-thienyl)](3-pyridyl))-N-(3-pyridylmethyl)carboxamide]
10 | 2480 | CC(C)CCNc1nc(-c2ccccc2)ccc1C(=O)NCc1cccnc1 [{2-[3-methylbutyl)amino]-6-phenyl(3-pyridyl)}-N-(3-pyridylmethyl)carboxamide]
11 | 66 | NCCCN1C(=O)CC[C@@H]1CNC(=O)c1cc(F)c(-c2cn[nH]c2)nc1NCCc1cccc(F)c1 [N-{[(2R)-1-(3-aminopropyl)-5-oxopyrrolidin-2-yl]methyl}(5-fluoro-2-{[2-(3-fluorophenyl)ethyl]amino}-6-pyrazol-4-yl(3-pyridyl))carboxamide]
12 | 95 | N#Cc1ccccc1-c1ccc(C(=O)NCC2CCCCC(=O)N2)c(NCCc2cccc(F)c2)n1 (stereo not shown) [(6-(2-cyanophenyl)-2-{[2-(3-fluorophenyl)ethyl]amino}(3-pyridyl))-N-[(7-oxoazaperhydroepin-2-yl)methyl]carboxamide]
13 | 15700 | CC(=O)N1CCC[C@H]1CNC(=O)c1ccc(-c2ccccc2)nc1NCCc1ccccn1 [N-[((2S)-1-acetylpyrrolidin-2-yl)methyl]{6-phenyl-2-[(2-(2-pyridyl)ethyl)amino](3-pyridyl)}carboxamide]
14 | 413 | N#Cc1ccccc1-c1ccc(C(=O)NC[C@H]2CCN2)c(NCCc2cccc(F)c2)n1 [N-[((2R)azetidin-2-yl)methyl](6-(2-cyanophenyl)-2-{[2-(3-fluorophenyl)ethyl]amino}(3-pyridyl))carboxamide]
15 | 283 | CC(O)[C@H](C)CNC(=O)c1cc(F)c(-c2cnn(C)c2)nc1NCCc1cccc(F)c1 (stereo partly drawn) [N-((2R)-3-hydroxy-2-methylbutyl)(5-fluoro-2-{[2-(3-fluorophenyl)ethyl]amino}-6-(1-methylpyrazol-4-yl)(3-pyridyl))carboxamide]
16 | 23 | Cn1cc(-c2nc(NCCc3cccc(F)c3)c(C(=O)NCc3cccnc3)cc2Br)cn1 [(5-bromo-2-{[2-(3-fluorophenyl)ethyl]amino}-6-(1-methylpyrazol-4-yl)(3-pyridyl))-N-(3-pyridylmethyl)carboxamide]

Row | IC50 [nM] | SMILES
17 | 2500 | N#Cc1ccccc1-c1ccc(C(=O)NCC2CCCCCN2)c(NCCc2cccc(F)c2)n1 (stereo not shown) [N-(azaperhydroepin-2-ylmethyl)(6-(2-cyanophenyl)-2-{[2-(3-fluorophenyl)ethyl]amino}(3-pyridyl))carboxamide]
18 | 136 | N#Cc1ccccc1-c1ccc(C(=O)NCC2CC2)c(NCCc2cccc(F)c2)n1 [(6-(2-cyanophenyl)-2-{[2-(3-fluorophenyl)ethyl]amino}(3-pyridyl))-N-(cyclopropylmethyl)carboxamide]
19 | 21900 | O=C(O)c1cccc(CCNc2nc(-c3ccccc3)ccc2C(=O)NCc2cccnc2)c1 [3-[2-({6-phenyl-3-[N-(3-pyridylmethyl)carbamoyl]-2-pyridyl}amino)ethyl]benzoic acid]
20 | 298 | CNc1ccc(CNC(=O)c2ccc(-c3ccccc3C#N)nc2NCCc2cccc(F)c2)cn1 [(6-(2-cyanophenyl)-2-{[2-(3-fluorophenyl)ethyl]amino}(3-pyridyl))-N-{[6-(methylamino)(3-pyridyl)]methyl}carboxamide]
21 | 29 | N#Cc1ccccc1-c1ccc(C(=O)NC[C@H]2CCCN2C(=O)CCCN)c(NCCc2cccc(F)c2)n1 [N-{[(2R)-1-(4-aminobutanoyl)pyrrolidin-2-yl]methyl}(6-(2-cyanophenyl)-2-{[2-(3-fluorophenyl)ethyl]amino}(3-pyridyl))carboxamide]
22 | 636 | C[C@H](CNC(=O)c1cc(F)c(-c2cnn(C)c2)nc1NCCc1cccc(F)c1)NCC(N)=O [N-{(2R)-2-[(carbamoylmethyl)amino]propyl}(5-fluoro-2-{[2-(3-fluorophenyl)ethyl]amino}-6-(1-methylpyrazol-4-yl)(3-pyridyl))carboxamide]
23 | 6410 | CC(C)(C)OC(=O)N1CCC[C@@H]1CNC(=O)c1cc(C#N)c(-c2cn[nH]c2)nc1NCCc1cccc(F)c1 [tert-butyl (2R)-2-{[(5-cyano-2-{[2-(3-fluorophenyl)ethyl]amino}-6-pyrazol-4-yl(3-pyridyl))carbonylamino]methyl}pyrrolidinecarboxylate]
24 | 7 | N#Cc1ccccc1-c1ccc(C(=O)NCc2cccc(NCCN)n2)c(NCCc2cccc(F)c2)n1 [N-({6-[(2-aminoethyl)amino](2-pyridyl)}methyl)(6-(2-cyanophenyl)-2-{[2-(3-fluorophenyl)ethyl]amino}(3-pyridyl))carboxamide]
25 | 19600 | N#Cc1ccccc1-c1ccc(C(=O)N[C@H](CCCNC(=O)OCc2ccccc2)C(N)=O)c(NCCc2cccc(F)c2)n1 [N-{(4R)-4-carbamoyl-4-[(6-(2-cyanophenyl)-2-{[2-(3-fluorophenyl)ethyl]amino}(3-pyridyl))carbonylamino]butyl}(phenylmethoxy)carboxamide]
26 | 755 | N#Cc1ccccc1-c1ccc(C(=O)NC[C@@H]2CCCN(C(=O)CN)C2)c(NCCc2cccc(F)c2)n1 [N-{[(3S)-1-(2-aminoacetyl)(3-piperidyl)]methyl}(6-(2-cyanophenyl)-2-{[2-(3-fluorophenyl)ethyl]amino}(3-pyridyl))carboxamide]
27 | 448 | O=C(NCC(O)CO)c1cc(F)c(-c2cn[nH]c2)nc1NCCc1cccc(F)c1 (stereo not shown) [N-(2,3-dihydroxypropyl)(5-fluoro-2-{[2-(3-fluorophenyl)ethyl]amino}-6-pyrazol-4-yl(3-pyridyl))carboxamide]
28 | 340 | CNC(=O)CCNC(=O)c1ccc(-c2ccccc2C#N)nc1NCCc1cccc(F)c1 [3-[(6-(2-cyanophenyl)-2-{[2-(3-fluorophenyl)ethyl]amino}(3-pyridyl))carbonylamino]-N-methylpropanamide]
29 | 711 | O=C(NCc1cc[nH]n1)c1ccc(-c2ccccc2)nc1NCCc1ccccn1 [{6-phenyl-2-[(2-(2-pyridyl)ethyl)amino](3-pyridyl)}-N-(pyrazol-3-ylmethyl)carboxamide]
30 | 629 | O=C(NCc1cccnc1)c1ccc(-c2ccc(Cl)cc2)nc1NCCc1ccccn1 [{6-(4-chlorophenyl)-2-[(2-(2-pyridyl)ethyl)amino](3-pyridyl)}-N-(3-pyridylmethyl)carboxamide]
31 | 4790 | CCOC(=O)CCNC(=O)c1ccc(-c2ccccc2C#N)nc1NCCc1cccc(F)c1 [ethyl 3-[(6-(2-cyanophenyl)-2-{[2-(3-fluorophenyl)ethyl]amino}-3-pyridyl)carbonylamino]propanoate]

Row | SMILES | IC50 [nM]
32 | CC(C)(C)OC(=O)NCCCN1C(=O)CC[C@@H]1CNC(=O)c1cc(C#N)c(-c2cn[nH]c2)nc1NCCc1cccc(F)c1 [N-[((2R)-1-{3-[(tert-butoxy)carbonylamino]propyl}-5-oxopyrrolidin-2-yl)methyl](5-cyano-2-{[2-(3-fluorophenyl)ethyl]amino}-6-pyrazol-4-yl(3-pyridyl))carboxamide] | 3510
33 | Cn1cc(-c2nc(NCCc3cccc(F)c3)c(C(=O)NC[C@H]3CCC(=O)N3CCCNC(=O)OC(C)(C)C)cc2Cl)cn1 [N-[((2R)-1-{3-[(tert-butoxy)carbonylamino]propyl}-5-oxopyrrolidin-2-yl)methyl](5-chloro-2-{[2-(3-fluorophenyl)ethyl]amino}-6-(1-methylpyrazol-4-yl)(3-pyridyl))carboxamide] | 443
34 | CC(C)(C)OC(=O)NCc1ncccc1CNC(=O)c1ccc(-c2cnn(CCO)c2)nc1NCCc1cccc(F)c1 [N-[(2-{[(tert-butoxy)carbonylamino]methyl}(3-pyridyl))methyl](2-{[2-(3-fluorophenyl)ethyl]amino}-6-[1-(2-hydroxyethyl)pyrazol-4-yl](3-pyridyl))carboxamide] | 15000
